{"source": "patent US20230374096A1", "about": "“OBESITY TREATMENT AND PREVENTION METHODS” (Vault Bioventures, Inc., priority 2022, published 2023)", "assay_type_in_all_cases": "in vivo, human", "key": {"[1]": {"experiment": "Example 18: liraglutide and 18-hour fasting", "conditions": "weeks 1-4: 0.75/1.5/1.5/2.25 mg, without exercise or caloric restriction", "text": "Patients are subject to a combination HMT/HNT treatment protocol as described in Table 22 below. […] [table]"}, "[2]": {"experiment": "Example 16: liraglutide and One-Meal-A-Day", "conditions": "One-Meal-A-Day; weeks 1-4: 0.75/1.5/1.5/2.25 mg; without exercise or caloric restriction", "text": "Patients are subject to a combination HMT/HNT treatment protocol as described in Table 20 below. […] [table]"}, "[3]": {"experiment": "Example 17: liraglutide and 15-hour fasting", "conditions": "weeks 1-4: 0.75/1.5/2.25/2.25 mg, without exercise or caloric restriction", "text": "Patients are subject to a combination HMT/HNT treatment protocol as described in Table 21 below. […] [table]"}, "[4]": {"experiment": "Example 13: dulaglutide and One-Meal-A-Day", "conditions": "One-Meal-A-Day; weeks 1-4: 0.2/0.375/0.375/0.6 mg; without exercise or caloric restriction", "text": "Patients are subject to a combination HMT/HNT treatment protocol as described in Table 17 below. […] [table]"}, "[5]": {"experiment": "Example 14: dulaglutide and 15-hour fasting", "conditions": "weeks 1-4: 0.2/0.375/0.375/0.6 mg, without exercise or caloric restriction", "text": "Patients are subject to a combination HMT/HNT treatment protocol as described in Table 18 below. […] [table]"}, "[6]": {"experiment": "Example 15: dulaglutide and 18-hour fasting", "conditions": "weeks 1-4: 0.2/0.375/0.375/0.6 mg, without exercise or caloric restriction", "text": "Patients are subject to a combination HMT/HNT treatment protocol as described in Table 19 below. […] [table]"}, "[7]": {"experiment": "Example 1: clinical study combining semaglutide (injection) and fasting (HMT/HNT), Patient 1", "text": "Patient 1 was subject to a combination HMT/HNT treatment protocol as described below."}, "[8]": {"experiment": "Example 2: semaglutide (injection) and 15-hour fasting", "conditions": "weeks 1-4: .25/.50/.50/1 mg, without exercise or caloric restriction", "text": "Patients are subject to a combination HMT/HNT treatment protocol as described in Table 6 below. […] [table]"}, "[9]": {"experiment": "Example 5: semaglutide (oral) and 15-hour fasting", "conditions": "weeks 1-4: 1/2/3.5/5 mg, without exercise or caloric restriction", "text": "Patients are subject to a combination HMT/HNT treatment protocol as described in Table 9 below. […] [table]"}, "[10]": {"experiment": "Example 6: semaglutide (oral) and 18-hour fasting", "conditions": "weeks 1-4: 1/2/3.5/5 mg, without exercise or caloric restriction", "text": "Patients are subject to a combination HMT/HNT treatment protocol as described in Table 10 below. […] [table]"}, "[11]": {"experiment": "Example 4: semaglutide (oral) and One-Meal-A-Day", "conditions": "One-Meal-A-Day; weeks 1-4: 1/2/3.5/5 mg; without exercise or caloric restriction", "text": "Patients are subject to a combination HMT/HNT treatment protocol as described in Table 8 below. […] [table]"}, "[12]": {"experiment": "Example 3: semaglutide (oral) and 18-hour fasting", "conditions": "weeks 1-4: .25/.50/.50/1 mg, without exercise or caloric restriction", "text": "Patients are subject to a combination HMT/HNT treatment protocol as described in Table 7 below. […] [table]"}}, "data": [{"compound": "CCCCCCCCCCCCCCCC(=O)N[C@@H](CCC(=O)NCCCC[C@H](NC(=O)[C@H](C)NC(=O)[C@H](C)NC(=O)[C@H](CCC(N)=O)NC(=O)CNC(=O)[C@H](CCC(=O)O)NC(=O)[C@H](CC(C)C)NC(=O)[C@H](Cc1ccc(O)cc1)NC(=O)[C@H](CO)NC(=O)[C@H](CO)NC(=O)[C@@H](NC(=O)[C@H](CC(=O)O)NC(=O)[C@H](CO)NC(=O)[C@@H](NC(=O)[C@H](Cc1ccccc1)NC(=O)[C@@H](NC(=O)CNC(=O)[C@H](CCC(=O)O)NC(=O)[C@H](C)NC(=O)[C@@H](N)Cc1cnc[nH]1)[C@@H](C)O)[C@@H](C)O)C(C)C)C(=O)N[C@@H](CCC(=O)O)C(=O)N[C@@H](Cc1ccccc1)C(=O)N[C@H](C(=O)N[C@@H](C)C(=O)N[C@@H](Cc1c[nH]c2ccccc12)C(=O)N[C@@H](CC(C)C)C(=O)N[C@H](C(=O)N[C@@H](CCCNC(=N)N)C(=O)NCC(=O)N[C@@H](CCCNC(=N)N)C(=O)NCC(=O)O)C(C)C)[C@@H](C)CC)C(=O)O", "note": "[Liraglutide]", "values": [{"measurement": "Therapeutic effects (e.g. weight loss)", "setting": "[1]", "result": "Desirable therapeutics effects (e.g. weigh loss) are achieved"}, {"measurement": "Therapeutic effects (e.g. weight loss)", "setting": "[2]", "result": "Desirable therapeutics effects (e.g. weigh loss) are achieved"}, {"measurement": "Therapeutic effects (e.g. weight loss)", "setting": "[3]", "result": "Desirable therapeutics effects (e.g. weigh loss) are achieved"}]}, {"compound": "Dulaglutide", "values": [{"measurement": "Therapeutic effects (e.g. weight loss)", "setting": "[4]", "result": "Desirable therapeutics effects (e.g. weigh loss) are achieved"}, {"measurement": "Therapeutic effects (e.g. weight loss)", "setting": "[5]", "result": "Desirable therapeutics effects (e.g. weigh loss) are achieved"}, {"measurement": "Therapeutic effects (e.g. weight loss)", "setting": "[6]", "result": "Desirable therapeutics effects (e.g. weigh loss) are achieved"}]}, {"compound": "Semaglutide", "values": [{"measurement": "Weight lost", "setting": "[7]; in 30 days, combination HMT/HNT", "result": 30, "unit": "pounds"}, {"measurement": "Bodyweight reduction", "setting": "[7]; starting weight 282 lbs, 30 days, weeks 1-4: .25/.50/.50/1 mg, One-Meal-A-Day", "result": "−30", "unit": "lbs"}, {"measurement": "Therapeutic effects (e.g. weight loss)", "setting": "[8]", "result": "Desirable therapeutics effects (e.g. weigh loss) are achieved"}]}, {"compound": "Semaglutide [Semaglutide (oral)]", "values": [{"measurement": "Therapeutic effects (e.g. weight loss)", "setting": "[9]", "result": "Desirable therapeutics effects (e.g. weigh loss) are achieved"}, {"measurement": "Therapeutic effects (e.g. weight loss)", "setting": "[10]", "result": "Desirable therapeutics effects (e.g. weigh loss) are achieved"}, {"measurement": "Therapeutic effects (e.g. weight loss)", "setting": "[11]", "result": "Desirable therapeutics effects (e.g. weigh loss) are achieved"}, {"measurement": "Therapeutic effects (e.g. weight loss)", "setting": "[12]", "result": "Desirable therapeutics effects (e.g. weigh loss) are achieved"}]}]}
